Experimental data: the NIST ThermoML archive (doi:10.1016/j.jct.2014.01.012)

Experiments:
[1] = refractive index (Na D-line) (dimensionless); xn = mol fraction of the nth substance listed; conditions: 101 kPa, Liquid, x2 = 0
[2] = xn = mol fraction of the nth substance listed; conditions: 101 kPa, Liquid, x2 = 0
[3] = refractive index (Na D-line) (dimensionless); conditions: 101.33 kPa, Liquid
[4] = 101.33 kPa, Liquid

CCCCOC(C)=O [butyl ethanoate] + CCCCCCCC[n+]1ccn(C)c1.F[P-](F)(F)(F)(F)F
Conditions	mass density, [2] [kg/m3]	refractive index, [1]	speed of sound, [2] [m/s]
293.15 K	881.134	1.39428	1211.3
298.15 K	876.004	1.39188	1190.5
303.15 K	870.855	1.38948	1169.8
308.15 K	865.685	1.3871	1149.2
313.15 K	860.492	1.38469	1128.8
318.15 K	855.275	1.38227	1108.5
323.15 K	850.032	1.37984	1088.3

CCCCOC(C)=O [butyl ethanoate] + CCCCCCn1cc[n+](C)c1.F[P-](F)(F)(F)(F)F
Conditions	mass density, Vibrating tube method [kg/m3]	refractive index, Standard Abbe refractometry	speed of sound, Sing-around technique in a fixed-path interferometer [m/s]
[1], 293.15 K	–	1.39428	–
[1], 298.15 K	–	1.39188	–
[1], 303.15 K	–	1.38948	–
[1], 308.15 K	–	1.3871	–
[1], 313.15 K	–	1.38469	–
[1], 318.15 K	–	1.38227	–
[1], 323.15 K	–	1.37984	–
[2], 293.15 K	881.134	–	1211.3
[2], 298.15 K	876.004	–	1190.5
[2], 303.15 K	870.855	–	1169.8
[2], 308.15 K	865.685	–	1149.2
[2], 313.15 K	860.492	–	1128.8
[2], 318.15 K	855.275	–	1108.5
[2], 323.15 K	850.032	–	1088.3

CCCCOC(C)=O [butyl ethanoate]
Conditions	mass density, Vibrating tube method [kg/m3]	refractive index, Standard Abbe refractometry	speed of sound, Sing-around technique in a fixed-path interferometer [m/s]
[3], 293.15 K	–	1.39428	–
[3], 298.15 K	–	1.39188	–
[3], 303.15 K	–	1.38948	–
[3], 308.15 K	–	1.3871	–
[3], 313.15 K	–	1.38469	–
[3], 318.15 K	–	1.38227	–
[3], 323.15 K	–	1.37984	–
[4], 293.15 K	881.134	–	1211.3
[4], 298.15 K	876.004	–	1190.5
[4], 303.15 K	870.855	–	1169.8
[4], 308.15 K	865.685	–	1149.2
[4], 313.15 K	860.492	–	1128.8
[4], 318.15 K	855.275	–	1108.5
[4], 323.15 K	850.032	–	1088.3

CCOC(C)=O [ethyl acetate]
Conditions	mass density, Vibrating tube method [kg/m3]	refractive index, Standard Abbe refractometry	speed of sound, Sing-around technique in a fixed-path interferometer [m/s]
[3], 293.15 K	–	1.37237	–
[3], 298.15 K	–	1.36982	–
[3], 303.15 K	–	1.36727	–
[3], 308.15 K	–	1.36473	–
[3], 313.15 K	–	1.36219	–
[3], 318.15 K	–	1.35968	–
[3], 323.15 K	–	1.35732	–
[4], 293.15 K	900.573	–	1162.4
[4], 298.15 K	894.473	–	1139.8
[4], 303.15 K	888.347	–	1117.2
[4], 308.15 K	882.172	–	1094.7
[4], 313.15 K	875.951	–	1072.4
[4], 318.15 K	869.681	–	1050.1
[4], 323.15 K	863.358	–	1028

CCOC(C)=O [ethyl acetate] + CCCCCCCC[n+]1ccn(C)c1.F[P-](F)(F)(F)(F)F
Conditions	mass density, [2] [kg/m3]	refractive index, [1]	speed of sound, [2] [m/s]
293.15 K	900.573	1.37237	1162.4
298.15 K	894.473	1.36982	1139.8
303.15 K	888.347	1.36727	1117.2
308.15 K	882.172	1.36473	1094.7
313.15 K	875.951	1.36219	1072.4
318.15 K	869.681	1.35968	1050.1
323.15 K	863.358	1.35732	1028

CCCCCCCC[n+]1ccn(C)c1.F[P-](F)(F)(F)(F)F [1-octyl-3-methylimidazolium hexafluorophosphate]
Conditions	mass density, [4] [kg/m3]	refractive index, [3]	speed of sound, [4] [m/s]
293.15 K	1222.81	1.42649	1388.2
298.15 K	1218.9	1.42512	1373.4
303.15 K	1214.96	1.42376	1359.3
308.15 K	1211.13	1.4224	1345.8
313.15 K	1207.33	1.42103	1332.7
318.15 K	1203.5	1.41967	1320.1
323.15 K	1199.67	1.41831	1307.7

CCOC(C)=O [ethyl acetate] + CCCCCCn1cc[n+](C)c1.F[P-](F)(F)(F)(F)F
[1]
Conditions	refractive index
293.15 K	1.37237
298.15 K	1.36982
303.15 K	1.36727
308.15 K	1.36473
313.15 K	1.36219
318.15 K	1.35968
323.15 K	1.35732

[2]
Conditions	mass density, Vibrating tube method [kg/m3]	speed of sound, Sing-around technique in a fixed-path interferometer [m/s]
293.15 K	900.573	1162.4
298.15 K	894.473	1139.8
303.15 K	888.347	1117.2
308.15 K	882.172	1094.7
313.15 K	875.951	1072.4
318.15 K	869.681	1050.1
323.15 K	863.358	1028

CCCCCCn1cc[n+](C)c1.F[P-](F)(F)(F)(F)F [1-hexyl-3-methylimidazolium hexafluorophosphate]
Conditions	mass density, Vibrating tube method [kg/m3]	refractive index, Standard Abbe refractometry	speed of sound, Sing-around technique in a fixed-path interferometer [m/s]
[3], 293.15 K	–	1.42064	–
[3], 298.15 K	–	1.41935	–
[3], 303.15 K	–	1.41806	–
[3], 308.15 K	–	1.41676	–
[3], 313.15 K	–	1.41547	–
[3], 318.15 K	–	1.41417	–
[3], 323.15 K	–	1.41288	–
[4], 293.15 K	1291.38	–	1436.9
[4], 298.15 K	1287.34	–	1423.5
[4], 303.15 K	1283.29	–	1410.6
[4], 308.15 K	1279.4	–	1398.2
[4], 313.15 K	1275.48	–	1386
[4], 318.15 K	1271.56	–	1374.2
[4], 323.15 K	1267.63	–	1362.5
